Reference: US20120071493A1, “SUBSTITUTED 8-SULFONYL-2,3,4,5-TETRAHYDRO-1H-GAMMA-CARBOLINES, LIGANDS AND PHARMACEUTICAL COMPOSITION; METHOD FOR THE PRODUCTION AND USE OF SAME” (priority 2009, published 2012)

Key:
[1] = target: T1, recombinant human 5-HT6 receptor (Homo sapiens, UniProt P50406); test: Antagonistic activity towards serotonin 5-HT6 receptors, cAMP cell function experiment; format: cell-based; details: HEK 293 cells expressing recombinant human 5-HT6 receptor; cAMP response to 10 μM serotonin; read-out: IC50, ability to block serotonin 5-HT6 receptors in the setting of cell function experiments
T1 construct: host or cells: HEK 293 cells with tetracycline-induced T-Rex system (Invitrogen)
T1 sequence (P50406 whole entry): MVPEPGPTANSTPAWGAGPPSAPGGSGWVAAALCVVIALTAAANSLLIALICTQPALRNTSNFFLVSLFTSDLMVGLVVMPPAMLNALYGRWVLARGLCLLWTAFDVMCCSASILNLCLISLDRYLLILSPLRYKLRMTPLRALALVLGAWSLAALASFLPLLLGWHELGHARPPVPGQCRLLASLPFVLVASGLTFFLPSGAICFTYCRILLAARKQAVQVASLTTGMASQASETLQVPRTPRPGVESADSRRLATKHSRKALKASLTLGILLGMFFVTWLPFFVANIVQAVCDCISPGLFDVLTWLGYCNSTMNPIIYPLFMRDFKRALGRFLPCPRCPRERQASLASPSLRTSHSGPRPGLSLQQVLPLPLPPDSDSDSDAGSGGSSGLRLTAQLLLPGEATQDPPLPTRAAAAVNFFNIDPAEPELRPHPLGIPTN
Protocol: Determination of antagonistic activity of substituted 8-sulfonyl-2,3,4,5-tetrahydro-1H-γ-carbolines of the general formula 1 towards serotonin 5-HT6 receptors. HEK 293 cells with tetracycline-induced T-Rex system (Invitrogen, USA) consistently expressing recombinant human 5-HT6 receptor, production of Etogen Scientific (USA), were used. The cells were grown in DMEM/10% FBS/1% AAS medium with Blasticidine S and Zeocin (both—Invitrogen, USA). According to the method worked up by the producer of T-Rex system tetracycline hydrochloride was added to the medium with the cells for the purpose of activation of 5-HT6 receptor expression. The cells were embedded in 96-well plates (30,000-40,000 cells per well) and incubated in 5%-CO2 incubator at 37° C. for 24 hs. Before experiments cells medium was replaced by Hank's balanced salt solution (HBSS), comprising 0.137 M NaCl, 5.4 mM KCl, 0.25 mM Na2HPO4, 0.44 mM KH2PO4, 1.3 mM CaCl2, 1.0 mM MgSO4, 5 mM HEPES (pH 7.4), 0.05% BSA and 1 mM IBMX. The tested compounds of general formula 1 were added to the cells in various concentrations. After incubation of the cells for 15 min at room temperature serotonin was added to them up to final concentration of 10 μM and incubation was continued for 30 min. The newly formed cAMP was determined by reagent kit LANCE cAMP Kit, according to the method described by the kit manufacturer […] (PerkinElmer, CIIIA). […] The data given testify that novel γ-carbolines of the general formula 1 are effective serotonin 5-HT6 receptor antagonists. Some of γ-carbolines of the general formula 1 have IC50<0.5 μM in the setting of cell function experiments (IC50—antagonist concentration blocking 5-HT6 receptors for 50%).

male mice of SHK line = test: Novel Object Recognition test, Scopolamine-disturbed recognition; format: in vivo; details: 0.05 mg/kg and 0.2 mg/kg intraperitoneally 30 minutes before training; Scopolamine 1 mg/kg
Protocol: The test was carried out in aged male mice of SHK line. Plexiglass plus maze, consisted of 4 dead-end chambers (numbered 1, 2, 3, 4), joined together through the fifth central chamber, was used in experiments. Mouse was placed into central chamber and allowed to explore the maze. Floor was cleaned after each animal. The sequence of chamber entries and duration of visits were registered by observer. Test was ended after 13 entries into dead-end chambers. Criterion for entry was location of all animal's paws inside the chamber at the same time.
During the training an animal was placed in the maze with one equiform bowl in each side chamber. In the course of testing (one hour after training) two opposite standing bowls were replaced by identical flasks, and animal was allowed to explore the maze. The time spent by animal in each side chamber was registered during the periods of training and testing. Index of novel object recognition was calculated as ratio of time spent by animal in side chambers with novel objects to the total time spent by it in all side chambers. In comparison with the training phase the appearance of novel object extends the time spent by animal in the chamber with novel object (so-called effect of novel object recognition). The recognition of novel objects was disturbed under action of Scopolamine administered in 1 mg/kg dose intraperitoneally 30 minutes before training, and recognition index was decreased.

mice = test: Porsolt's Forced Swim Test; format: in vivo; details: injected for 4 days in doses of 1 mg/kg; 15 minutes test
Protocol: Mice Behavior in Porsolt's Forced Swim Test. The test apparatus represented a plastic vessel filled with water up to height of 18 cm at 20-22° C. Mice were placed in water and for 15 minutes the duration of immobile hanging in water-so called behavioural […], which is considered to be a measure of depressively-like state, was registered. Automated computerized detection of motion with videosystem and Any-maze programm were used in test. […] This testifies the decreasing of time of a depressively-like state.

Row | Structure (SMILES) | IC50 [1] [µM] | prevention of Scopolamine influence on novel object recognition (male mice of SHK line) | duration of immobile hanging of mice in water (mice)
1 | CN1CCc2[nH]c3ccc(S(=O)(=O)Nc4cccc(F)c4)cc3c2C1.Cl [1.2.1(3)•HCl, 2-methyl-2,3,4,5-tetrahydro-1H-γ-carboline-8-sulfonic acid 3-fluorophenyl amide hydrochloride] | 0.015 | could be prevented | decreased almost thrice
2 | CN1CCc2c(c3cc(S(=O)(=O)c4ccccc4)ccc3n2C)C1.Cl [1.1.1(4)•HCl, 2,5-dimethyl-8-(phenylsulfonyl)-2,3,4,5-tetrahydro-1H-γ-carboline hydrochloride] | 0.078 | could be prevented | decreased almost thrice
